Data from article PMC11806944 (Analytical methods : advancing methods and applications, 2025).

How the values were obtained:
[1] = ref Hazard Substances Data Bank (HSDB); cited from earlier work
[2] = estimated; cited from earlier work
zebrafish embryos [3] = settings: ~120 hpf; for Incidence of any effect in embryonic zebrafish: 35 μM exposure with daily UV fluorescence measurement
[4] = Sorption control wells: abiotic losses to polystyrene 96-well microplate; type: physicochemical
embryonic zebrafish = settings: cited from earlier work
zebrafish embryos [5] = settings: Tropical 5D wild-type, in vivo, 35 μM; for Chemical uptake amount as share of the total chemical amount added: 5 day

Compound	Henry's coefficient [1]	log Kow [2]	Incidence of any effect in embryonic zebrafish (zebrafish embryos [3]) [%]	Endpoints observed shared by both chemicals (zebrafish embryos [3]; 35 μM exposure)	Actual equilibrium media concentration ([4]; control wells, reached after 1 day, ~35 μM nominal)	Lowest observed adverse effect level (LOAEL) (embryonic zebrafish) [µM]	Total uptake mass per zebrafish embryo, corrected for abiotic losses (zebrafish embryos [5]) [nmol]	Chemical uptake amount as share of the total chemical amount added (zebrafish embryos [5])	Further endpoints observed (zebrafish embryos [3]; 35 μM exposure)	Decrease in sorption rate when plates were removed from the shaker table ([4]; t ≤ 1 day vs t ≥ 1 day) [factor]
Oc1ccc2ccccc2c1 [2-hydroxynaphthalene]	2.7 × 10^−8 atm m^3 mol^−1	2.7	97	mortality, yolk sac and pericardial edema, and pectoral fin malformation	approximately 31.5 μM	35	2.09 ± 0.89	approximately 50%	–	–
c1ccc2nc3ccccc3cc2c1 [acridine, Acridine]	4 × 10^−7 atm m^3 mol^−1	3.4	100	mortality, yolk sac and pericardial edema, and pectoral fin malformation	–	35	0.67 ± 0.26	~21%	Axis and cranial deformities	2
